Measurements as given in US20100062997A1, “USE OF IDRAPARINUX FOR EXTENDED PROPHYLAXIS OF THROMBOEMBOLISM” (SANOFI-AVENTIS, priority 2008, published 2010).

Legend:
[1] = test system: patients with confirmed, symptomatic DVT or PE treated for 6 months with a VKA or idraparinux; assay: Same study, principal safety outcome: major bleeding; format: in vivo
Experimental: (§1) A double-blind, placebo-controlled study evaluated patients who had completed 6 months of initial treatment for deep venous thrombosis (hereafter “DVT”) or pulmonary embolism (hereafter “PE”) and who were then randomly assigned to receive an additional 6 months of prophylaxis with idraparinux. The efficacy of this method of thromboprophylaxis was evaluated in these patients.
(§2) Patients received a once-weekly subcutaneous dose of 2.5 mg of idraparinux or placebo with an identical appearance for 6 months (26 injections). In patients who had received idraparinux before randomization, the first dose of idraparinux or placebo was given 6 to 8 days after the last injection of the drug. In patients who had received a VKA before randomization, the first dose was given when the international normalized ratio (INR) was 3.0 or less. For patients with a creatinine clearance of less than 30 ml/min., the weekly idraparinux dose was 1.5 mg, with a first dose of 2.5 mg in patients who had received a VKA before randomization.
The principal safety outcome was major bleeding. […]
Analysis of the primary safety outcome, the incidence of major bleeding at 6 months, was performed with the use of the Mantel-Haenszel test, stratified according to the previous treatment. The effect of initial, prerandomization treatment on efficacy and safety was also analyzed. […]

[2] = test system: patients with confirmed, symptomatic DVT or PE treated for 6 months with a VKA or idraparinux; assay: Double-blind, placebo-controlled study of 6 months extended thromboprophylaxis: symptomatic recurrent VTE; format: in vivo
Experimental: as §1
Eligible patients were those aged above or equal to 18 years, with confirmed, symptomatic DVT or PE and who had been treated for 6 months with a VKA (acenocoumarol or warfarin), either in previous van Gogh studies (see The van Gogh Investigators, N. Engl. J. Med., 2007, 357, 1094-104) or outside these studies, or with idraparinux (in van Gogh studies).
The diagnostic criteria for DVT were a calf trifurcation or a more proximal vein that were noncompressible on ultrasonography or an intraluminal filling defect on venography. For PE, the diagnostic criteria were an intraluminal filling defect in subsegmental or more proximal pulmonary arteries on spiral computed tomography (CT) or conventional pulmonary angiography, a high-probability finding on a ventilation-perfusion lung scan, or a nondiagnostic finding on a lung scan with objectively documented DVT (H. R. Büller et al., Ann. Intern. Med., 2004, 140, 867-73; The Matisse Investigators, N. Engl. J. Med., 2003, 349, 1695-702).
Patients were ineligible if they met one or more of the following criteria: an indication to continue anticoagulant therapy for the index DVT or PE beyond 6 months, other indications for prophylaxis with a VKA, pregnancy or breast-feeding, a creatinine clearance of less than 10 ml per minute, severe hepatic disease, bacterial endocarditis, active bleeding or a high risk of bleeding, uncontrolled hypertension (systolic blood pressure above 180 mm Hg or diastolic blood pressure above 110 mm Hg), or a life expectancy of less than 3 months.
Patients were randomized, with stratification according to study center and to the anticoagulant treatment received in the 6 months before randomization (idraparinux within the van Gogh studies or VKA within or outside the van Gogh studies). Randomization was to be performed not more than 1 hour before the administration of the first dose of the study drug.
as §2
All patients were contacted after 1 week and at 3 and 6 months. […] At each contact, symptoms and signs of recurrent VTE were investigated.
All suspected outcome events were reviewed and classified by a central adjudication committee, whose members were unaware of study-group assignment.
The primary efficacy outcome was the incidence of symptomatic recurrence of VTE, defined as objectively documented recurrent PE, DVT or death attributed to PE. A diagnosis of recurrent VTE was accepted in the absence of an adequate objective test result if the investigator had treated the patient with therapeutic doses of heparin for more than 2 days or with a vena cava filter, thrombectomy or thrombolysis, or if recurrent VTE could not be ruled out. […]

[3] = idraparinux group, month 6 after randomization, counted in most severe category

SMILES: CO[C@H]1O[C@H](COS(=O)(=O)O)[C@@H](O[C@@H]2O[C@@H](C(=O)O)[C@@H](O[C@H]3O[C@H](COS(=O)(=O)O)[C@@H](O[C@@H]4O[C@H](C(=O)O)[C@@H](O[C@H]5O[C@H](COS(=O)(=O)O)[C@@H](OC)[C@H](OC)[C@H]5OC)[C@H](OC)[C@H]4OC)[C@H](OS(=O)(=O)O)[C@H]3OS(=O)(=O)O)[C@H](OC)[C@H]2OC)[C@H](OS(=O)(=O)O)[C@H]1OS(=O)(=O)O [Idraparinux, idraparinux]
- major hemorrhage ([1]; idraparinux group, 6 months of treatment, placebo 0%, P<0.001): 1.9%
- major bleedings after discontinuation ([1]; placebo group, patients who first received idraparinux, 6 months): without major bleedings
- symptomatic, objectively confirmed VTE (frequency of recurrent thromboembolism) ([2]; idraparinux group, 6 of 594 patients, during the 6 months of randomly assigned treatment): 1.0%
- recurrent VTE ([2]; idraparinux group, 7 patients, further 6-month observation period after end of the additional 6 months of thromboprophylaxis, P=0.21 vs placebo): 1.2%
- cumulative incidence of recurrent VTE (Kaplan-Meier) ([2]; idraparinux group, 1 year after randomization, P=0.002 vs placebo): 1.7%
- Type of recurrent event: DVT only [2, 3]: 3 number of patients
- Type of recurrent event: PE fatal [2, 3]: 2 number of patients
- Type of recurrent event: PE non fatal [2, 3]: 1 number of patients
- reduction in the relative risk of recurrent VTE ([2]; idraparinux vs placebo, 6 months, 95% CI 33.5 to 88.8, P=0.002): 72.7%
- Recurrent VTE, Odds Ratio (95% CI) ([2]; idraparinux vs placebo, month 6 after randomization, all patients, adjusted according to treatment history, P 0.002): 0.27 (0.11-0.66)
- Recurrent VTE, Odds Ratio (95% CI) ([2]; idraparinux vs placebo, treatment before randomization: VKA outside study, month 6, P 0.004): 0.09 (0.01-0.69)
- Recurrent VTE, Odds Ratio (95% CI) ([2]; idraparinux vs placebo, treatment before randomization: VKA within study, month 6, P 0.02): 0.20 (0.04-0.92)
- Recurrent VTE, Odds Ratio (95% CI) ([2]; idraparinux vs placebo, treatment received before randomization: VKA, month 6, P <0.001): 0.14 (0.04-0.48)
- Recurrent VTE, Odds Ratio (95% CI) ([2]; idraparinux vs placebo, treatment received before randomization: idraparinux, month 6, P 0.68): 1.58 (0.26-9.55)
- cumulative incidence of recurrent thromboembolism by treatment received before randomization (FIG. 1) ([2]; placebo group, entire year after randomization, 268 patients who had received idraparinux in the 6 months before randomization): lowest
- frequency of recurrence (6-month recurrence rate) after discontinuation ([2]; placebo group, substance = treatment received for 6 months before randomization): less than 1%
